# In patent publication US5232846A, “Method for producing a thermostable lipoprotein lipase from streptomyces” (Unitika Ltd., priority 1988, dated 1993):
# Tests used:
# [1] = tested on: LPL of the present invention produced by Streptomyces 7825; assay: Inhibition of the LPL; assay type: biochemical
# [2] = tested on: LPL of the present invention produced by Streptomyces 7825; assay: Substrate specificity of the LPL on lipoproteins consisting of various triglycerides; assay type: biochemical; conditions: relative to olive oil as a standard (100%)
# Experimental: In Table 1, the activity is expressed relative to an olive oil as a standard (100%).
# Titer determination is principally based on the quantitative determination of glycerol formed through the action of LPL on artificial lipoprotein prepared from olive oil as described in Clin. Chim. Acta., Vol. 22, p.
# A mixture of 5 g of olive oil and 5 ml of a 5% (v/v) Triton X-100 solution is subjected to ultrasonication for 10 minutes to prepare a substrate emulsion.
# Seventy microliters of the abovementioned substrate solution, 20 μl of a 0.5M glycine buffer (pH 8.5), 50 μl of 10% (w/v) BSA, and 55 μl of water are mixed in a test tube, and the system is preheated at 37° C. 5 μl of an enzyme solution having an enzyme concentration adjusted to about 10 U/ml, is added to the system. The system is then allowed to react at 37° C. for 10 minutes. After completion of the reaction, the test tube is soaked in boiling water to stop the reaction. After allowing the test tube to cool, 400 μl of isopropanol is added to the reaction system, followed by stirring. The mixture is then centrifuged. 2 ml of isopropanol is then added to 100 μl of the supernatant liquor. The solution is mixed with 1 ml of the above prepared metaperiodic acid solution and 0.5 ml of the above prepared acetylacetone solution to effect a reaction at 50° C. for 30 minutes. The absorbance of the system at 405 nm is measured. A blank estimation (control) is run on a system containing no enzyme solution.
# From the measured values, a calibration curve is prepared using a glycerol solution having a known concentration. Thus the glycerol content of the reaction mixture is determined using the prepared calibration curve.
# The enzyme activity is expressed by taking the amount of the enzyme which forms 1 μmol of glycerol per minute as 1 U.
Compound,Relative Activity [2] [%],also measured
[Cl-].[Na+] [NaCl],,inhibition of LPL ([1]; 3M NaCl): about 40%
CC(=O)OCC(COC(C)=O)OC(C)=O [Triacetin],28,
CCCC(=O)OCC(COC(=O)CCC)OC(=O)CCC [Tributyrin],22,
CCCCCCCCCC(=O)OCC(COC(=O)CCCCCCCCC)OC(=O)CCCCCCCCC [Tricaprin],153,
CCCCCC(=O)OCC(COC(=O)CCCCC)OC(=O)CCCCC [Tricaproin],46,
CCCCCCCC(=O)OCC(COC(=O)CCCCCCC)OC(=O)CCCCCCC [Tricaprylin],148,
CCCCCCCCCCCC(=O)OCC(COC(=O)CCCCCCCCCCC)OC(=O)CCCCCCCCCCC [Trilaurin],234,
CCCCCCCC/C=C\CCCCCCCC(=O)OCC(COC(=O)CCCCCCC/C=C\CCCCCCCC)OC(=O)CCCCCCC/C=C\CCCCCCCC [Triolein],75,
CCCCCCCCCCCCCCCC(=O)OCC(COC(=O)CCCCCCCCCCCCCCC)OC(=O)CCCCCCCCCCCCCCC [Tripalmitin],99,
CCCCCCCCCCCCCCCCCC(=O)OCC(COC(=O)CCCCCCCCCCCCCCCCC)OC(=O)CCCCCCCCCCCCCCCCC [Tristearin],29,
C[C@H](CCC(=O)O)[C@H]1CC[C@H]2[C@@H]3CC[C@@H]4C[C@H](O)CC[C@]4(C)[C@H]3C[C@H](O)[C@]12C [deoxycholic acid],,inhibition of LPL ([1]; 10 mM deoxycholic acid): about 40%
protamine sulfate,,inhibition of LPL ([1]; 400 μg/ml protamine sulfate): about 30%
